The results in this text go back to US20250230171A1 (MOMA Therapeutics, Inc., priority 2023, published 2025).

Bounds are passed on as bounds.

As usually defined, the IC50 is the concentration needed to halve the response being measured.

The subject of one assay is DLD1 BRCA2 (−/−) cells. The assay can be described thus: 7-day cell viability assay (CellTiter-Glo), DLD1 BRCA2 (−/−). Format: cell-based, human. The settings on record: Homo sapiens, DLD-1, 168 h, 7-day CellTiter-Glo, n=2, read-out: Viability IC50 (uM) DLD1 BRCA2 null. The method, boiled down: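 7-day growth assay in DLD1 cells with or without BRCA2; seeding densities chosen to keep log-linear growth. Compound: 10 uM top, 3-fold, 9 points. Endpoint: CTG ATP luminescence at RT.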
Background: In ATP-based viability assays light output follows the ATP content of the culture.

For another assay, the system named is DLD1 WT cells. The assay can be described thus: 7-day cell viability assay (CellTiter-Glo), DLD1 parental (WT). It counts as cell-based, human. As to conditions: Homo sapiens, DLD-1, 168 h, 7-day CellTiter-Glo, n=2.

On to `COc1cnc(Cl)cc1-c1cc(C)ncc1C(=O)Nc1nc2c(s1)CN(C(=O)c1nc(C(F)(F)F)ccc1OC)C2` [Example 937, 2′-chloro-5′-methoxy-N-(5-(3-methoxy-6-(trifluoromethyl)picolinoyl)-5,6-dihydro-4H-pyrrolo[3,4-d]thiazol-2-yl)-6-methyl-[4,4′-bipyridine]-3-carboxamide], for which the IC50 is 0.001 to 0.1 µM with DLD1 BRCA2 (−/−) cells and ≥ 10 µM in the assay with DLD1 WT cells.
Take `Cc1cc(-c2cc(Cl)cnc2OC(F)F)c(C(=O)Nc2nc3c(s2)CN(C(=O)c2ccc(C(F)F)cn2)C3)cn1` [Example 938, 5-chloro-2-(difluoromethoxy)-N-(5-(5-(difluoromethyl)picolinoyl)-5,6-dihydro-4H-pyrrolo[3,4-d]thiazol-2-yl)-6′-methyl-[3,4′-bipyridine]-3′-carboxamide]: the IC50 in the assay with DLD1 BRCA2 (−/−) cells is 0.001 to 0.1 µM; in the assay on DLD1 WT cells, ≥ 10 µM.
Regarding `COc1cnc(Cl)cc1-c1cc(C)ncc1C(=O)Nc1nc2c(s1)CN(C(=O)c1nc(Cl)c(C(F)F)cc1C)C2` [Example 940, 2′-chloro-N-(5-(6-chloro-5-(difluoromethyl)-3-methylpicolinoyl)-5,6-dihydro-4H-pyrrolo[3,4-d]thiazol-2-yl)-5′-methoxy-6-methyl-[4,4′-bipyridine]-3-carboxamide], the figures for the IC50 in the assay with DLD1 BRCA2 (−/−) cells and in the assay with DLD1 WT cells were 0.001 to 0.1 µM and ≥ 10 µM, respectively.
`COc1cnc(Cl)cc1-c1cc(C)ncc1C(=O)Nc1nc2c(s1)CN(C(=O)c1ncc(C(F)(F)F)nc1OC)C2` [Example 945, 2′-chloro-5′-methoxy-N-(5-(3-methoxy-5-(trifluoromethyl)pyrazine-2-carbonyl)-5,6-dihydro-4H-pyrrolo[3,4-d]thiazol-2-yl)-6-methyl-[4,4′-bipyridine]-3-carboxamide]: the concentration for half-maximal inhibition (IC50) was 0.001 to 0.1 µM in the assay with DLD1 BRCA2 (−/−) cells and ≥ 10 µM in the assay on DLD1 WT cells.
Take `COc1cnc(Cl)cc1-c1cc(C)ncc1C(=O)Nc1nc2c(s1)CN(C(=O)c1ccc(C(F)F)nc1C)C2` [Example 947, 2′-chloro-N-(5-(6-(difluoromethyl)-2-methylnicotinoyl)-5,6-dihydro-4H-pyrrolo[3,4-d]thiazol-2-yl)-5′-methoxy-6-methyl-[4,4′-bipyridine]-3-carboxamide]: the IC50 with DLD1 BRCA2 (−/−) cells was 0.001 to 0.1 µM; in the assay with DLD1 WT cells, ≥ 10 µM.
The like results for `COc1cnc(Cl)cc1-c1cc(C)ncc1C(=O)Nc1nc2c(s1)CN(C(=O)c1nccc(C(F)F)c1F)C2` [Example 949, 2′-chloro-N-(5-(4-(difluoromethyl)-3-fluoropicolinoyl)-5,6-dihydro-4H-pyrrolo[3,4-d]thiazol-2-yl)-5′-methoxy-6-methyl-[4,4′-bipyridine]-3-carboxamide] were, in that order, 0.001 to 0.1 µM and ≥ 10 µM.
For the compound `COc1cnc(Cl)cc1-c1cc(C)ncc1C(=O)Nc1nc2c(s1)CN(C(=O)c1nccc(C(F)(F)F)c1C)C2` [Example 951, 2′-chloro-5′-methoxy-6-methyl-N-(5-(3-methyl-4-(trifluoromethyl)picolinoyl)-5,6-dihydro-4H-pyrrolo[3,4-d]thiazol-2-yl)-[4,4′-bipyridine]-3-carboxamide], the IC50 in the assay on DLD1 BRCA2 (−/−) cells was 0.001 to 0.1 µM; in the assay with DLD1 WT cells it was ≥ 10 µM.
In the case of `COc1cnc(Cl)cc1-c1cc(C)ncc1C(=O)Nc1nc2c(s1)CN(C(=O)c1nc(C(F)(F)F)ccc1Cl)C2` [Example 952, 2′-chloro-N-(5-(3-chloro-6-(trifluoromethyl)picolinoyl)-5,6-dihydro-4H-pyrrolo[3,4-d]thiazol-2-yl)-5′-methoxy-6-methyl-[4,4′-bipyridine]-3-carboxamide], the figures for the IC50 in the assay on DLD1 BRCA2 (−/−) cells and in the assay with DLD1 WT cells were 0.001 to 0.1 µM and ≥ 10 µM, respectively.
Turning to `COc1cnc(Cl)cc1-c1cc(C)ncc1C(=O)Nc1nc2c(s1)CN(C(=O)C1CCN(CC(F)(F)F)CC1)C2` [Example 959, 2′-chloro-5′-methoxy-6-methyl-N-(5-(1-(2,2,2-trifluoroethyl)piperidine-4-carbonyl)-5,6-dihydro-4H-pyrrolo[3,4-d]thiazol-2-yl)-[4,4′-bipyridine]-3-carboxamide], the IC50 in the assay with DLD1 BRCA2 (−/−) cells was 0.001 to 0.1 µM; in the assay on DLD1 WT cells it was ≥ 10 µM.
The like results for `COc1cnc(Cl)cc1-c1cc(C)ncc1C(=O)Nc1nc2c(s1)CN(C(=O)c1nccc(C(F)(F)F)c1F)C2` [Example 961, 2′-chloro-N-(S-(3-fluoro-4-(trifluoromethyl)picolinoyl)-5,6-dihydro-4H-pyrrolo[3,4-d]thiazol-2-yl)-5′-methoxy-6-methyl-[4,4′-bipyridine]-3-carboxamide] were, in that order, 0.001 to 0.1 µM and ≥ 10 µM.
In the case of `COc1cnc(Cl)cc1-c1cc(C)ncc1C(=O)Nc1nc2c(s1)CN(C(=O)c1ccc(C(F)(F)F)c(OC)n1)C2` [Example 962, 2′-chloro-5′-methoxy-N-(5-(6-methoxy-5-(trifluoromethyl)picolinoyl)-5,6-dihydro-4H-pyrrolo[3,4-d]thiazol-2-yl)-6-methyl-[4,4′-bipyridine]-3-carboxamide], the IC50 in the assay on DLD1 BRCA2 (−/−) cells was in the range of 0.001 to 0.1 µM; in the assay with DLD1 WT cells, 5 to 10 µM.
`COc1cnc(Cl)cc1-c1cc(C)ncc1C(=O)Nc1nc2c(s1)CN(Cc1ccc(C(F)F)cc1F)C2` [Example 964, 2′-chloro-N-(5-(4-(difluoromethyl)-2-fluorobenzyl)-5,6-dihydro-4H-pyrrolo[3,4-d]thiazol-2-yl)-5′-methoxy-6-methyl-[4,4′-bipyridine]-3-carboxamide]: the IC50 in the assay with DLD1 BRCA2 (−/−) cells is 0.001 to 0.1 µM; in the assay on DLD1 WT cells, ≥ 10 µM.
In the case of `COc1cnc(Cl)cc1-c1cc(C)ncc1C(=O)Nc1nc2c(s1)CN(C(=O)c1nc(C(F)(F)F)ccc1C)C2` [Example 965, 2′-chloro-5′-methoxy-6-methyl-N-(5-(3-methyl-6-(trifluoromethyl)picolinoyl)-5,6-dihydro-4H-pyrrolo[3,4-d]thiazol-2-yl)-[4,4′-bipyridine]-3-carboxamide], the IC50 was 0.001 to 0.1 µM with DLD1 BRCA2 (−/−) cells and ≥ 10 µM in the assay with DLD1 WT cells.
For `COc1cnc(Cl)cc1-c1cc(C)ncc1C(=O)Nc1nc2c(s1)CN(C(=O)c1nccc(C(F)F)c1OC)C2` [Example 966, 2′-chloro-N-(5-(4-(difluoromethyl)-3-methoxypicolinoyl)-5,6-dihydro-4H-pyrrolo[3,4-d]thiazol-2-yl)-5′-methoxy-6-methyl-[4,4′-bipyridine]-3-carboxamide], the IC50 was 0.001 to 0.1 µM in the assay with DLD1 BRCA2 (−/−) cells and ≥ 10 µM in the assay on DLD1 WT cells.
Take `COc1cnc(Cl)cc1-c1cc(C)ncc1C(=O)Nc1nc2c(s1)CN(C(=O)c1nccc(C(F)(F)F)c1OC)C2` [Example 968, 2′-chloro-5′-methoxy-N-(5-(3-methoxy-4-(trifluoromethyl)picolinoyl)-5,6-dihydro-4H-pyrrolo[3,4-d]thiazol-2-yl)-6-methyl-[4,4′-bipyridine]-3-carboxamide]: the IC50 is 0.001 to 0.1 µM in the assay with DLD1 BRCA2 (−/−) cells and ≥ 10 µM in the assay on DLD1 WT cells.
With `CCOc1nc(C(F)(F)F)ccc1C(=O)N1Cc2nc(NC(=O)c3cnc(C)cc3-c3cc(Cl)ncc3OC)sc2C1` [Example 969, 2′-chloro-N-(5-(2-ethoxy-6-(trifluoromethyl)nicotinoyl)-5,6-dihydro-4H-pyrrolo[3,4-d]thiazol-2-yl)-5′-methoxy-6-methyl-[4,4′-bipyridine]-3-carboxamide], the IC50 was 0.001 to 0.1 µM in the assay on DLD1 BRCA2 (−/−) cells and ≥ 10 µM in the assay with DLD1 WT cells.
In the case of `CCc1nc(C(F)(F)F)ccc1C(=O)N1Cc2nc(NC(=O)c3cnc(C)cc3-c3cc(Cl)ncc3OC)sc2C1` [Example 970, 2′-chloro-N-(5-(2-ethyl-6-(trifluoromethyl)nicotinoyl)-5,6-dihydro-4H-pyrrolo[3,4-d]thiazol-2-yl)-5′-methoxy-6-methyl-[4,4′-bipyridine]-3-carboxamide], the figures for the IC50 in the assay on DLD1 BRCA2 (−/−) cells and in the assay on DLD1 WT cells were 0.001 to 0.1 µM and ≥ 10 µM, respectively.
Regarding `COc1cnc(Cl)cc1-c1cc(C)ncc1C(=O)Nc1nc2c(s1)CN(C(=O)c1ncc(C(F)F)nc1OC)C2` [Example 972, 2′-chloro-N-(5-(5-(difluoromethyl)-3-methoxypyrazine-2-carbonyl)-5,6-dihydro-4H-pyrrolo[3,4-d]thiazol-2-yl)-5′-methoxy-6-methyl-[4,4′-bipyridine]-3-carboxamide], the figures for the IC50 with DLD1 BRCA2 (−/−) cells and in the assay on DLD1 WT cells were 0.001 to 0.1 µM and ≥ 10 µM, respectively.
For the compound `COc1cnc(Cl)cc1-c1cc(C)ncc1C(=O)Nc1nc2c(s1)CN(C(=O)c1cnc(C(F)(F)F)cc1Cl)C2` [Example 973, 2′-chloro-N-(5-(4-chloro-6-(trifluoromethyl)nicotinoyl)-5,6-dihydro-4H-pyrrolo[3,4-d]thiazol-2-yl)-5′-methoxy-6-methyl-[4,4′-bipyridine]-3-carboxamide], the values for the IC50 in the assay with DLD1 BRCA2 (−/−) cells and in the assay on DLD1 WT cells were 0.001 to 0.1 µM and ≥ 10 µM, respectively.
On to `COc1cc(C(F)(F)F)ncc1C(=O)N1Cc2nc(NC(=O)c3cnc(C)cc3-c3cc(Cl)ncc3OC)sc2C1` [Example 974, 2′-chloro-5′-methoxy-N-(5-(4-methoxy-6-(trifluoromethyl)nicotinoyl)-5,6-dihydro-4H-pyrrolo[3,4-d]thiazol-2-yl)-6-methyl-[4,4′-bipyridine]-3-carboxamide], for which the IC50 with DLD1 BRCA2 (−/−) cells is 0.001 to 0.1 µM; with DLD1 WT cells, ≥ 10 µM.
The like results for `COc1cnc(Cl)cc1-c1cc(C)ncc1C(=O)Nc1nc2c(s1)CN(C(C)c1ccc(C(F)F)cc1F)C2` (centres unmarked) [Example 975, 2′-chloro-N-(5-(1-(4-(difluoromethyl)-2-fluorophenyl)ethyl)-5,6-dihydro-4H-pyrrolo[3,4-d]thiazol-2-yl)-5′-methoxy-6-methyl-[4,4′-bipyridine]-3-carboxamide] were, in that order, 0.001 to 0.1 µM and ≥ 10 µM.
`COc1cnc(Cl)cc1-c1cc(C)ncc1C(=O)Nc1nc2c(s1)CN(C(=O)c1nccc(C(F)F)c1C)C2` [Example 976, 2′-chloro-N-(5-(4-(difluoromethyl)-3-methylpicolinoyl)-5,6-dihydro-4H-pyrrolo[3,4-d]thiazol-2-yl)-5′-methoxy-6-methyl-[4,4′-bipyridine]-3-carboxamide]: the IC50 with DLD1 BRCA2 (−/−) cells was 0.001 to 0.1 µM; in the assay on DLD1 WT cells it was ≥ 10 µM.
